These results are taken from patent US20180185327A1, “FORMULATION COMPRISING PARTICLES AND A LIPASE INHIBITOR” (PERORA GMBH, priority 2015, published 2018).

Read-outs that look alike come from different tables or passages of the source.

Series [1] can be described thus: High fat diet feeding experiments in rats (cream chow with orlistat, with or without polymer or lipid granulate). It is filed as in vivo, male wistar rats. The settings on record: Ex. 3.2: four rats, cream chow 50% fat with added orlistat 0.6 mg/g chow, seven days. The procedure:
Animals (male rats) were kept in cages on standard animal bedding (two animals per cage or individual housing) and were provided with ad libitum access to food and water. Animal food was provided as pellets in a pellet rack or as a cream or as granulate powder each filled in a container attached to the inside of the cage.
Body weight was recorded at beginning and end of experiments. Food consumption was documented daily except for weekends. Experiments were performed according to German laws of animal protection.
Rodent chow was purchased from ssniff Spezialdiaten GmbH, Germany; poly(acrylic acid) (PAA, Carbopol® 971 P NF) was obtained from the Lubrizol Corporation, USA; and HPMC (AnyAddy®) was obtained from Harke Pharma, Germany. Orlistat (Hexal, Germany) was purchased in a local pharmacy. Hard fat/tripalmitin (Dynasan® 116), triglyceride (Witepsol® E85), glycerol monooleate (Imwitor®990), and Xanthan were obtained from NRC/Jungbunzlauer, Germany. Glycerol monolaurate (GML 90 food) was obtained from Mosselman, Belgium. Resistant dextrin (Nutriose® FB06) was obtained from Barentz, Germany or Barentz, Netherlands.

The conditions of series [2]: cited from earlier work.
The conditions of series [3]: after an oral dose; cited from earlier work.

For `CCCCCCCCCCC[C@@H](C[C@@H]1OC(=O)[C@H]1CCCCCC)OC(=O)[C@H](CC(C)C)NC=O` [orlistat], in series [1], the “body weight lost (±SD)” value is reported as 2.5±1.4% and the “mean daily food intake” value was 23.6 g. In addition, the “dietary fat prevented from being absorbed” value in series [2] (standard over-the-counter dose of 60 mg) is recorded as “about 25%”. Further, in series [2] (standard prescription dose of 120 mg three times daily before meals), the “dietary fat prevented from being absorbed” value was “approximately 30%”. The amount absorbed systemically in series [3] is reported as “Only trace amounts”.
